# Reference: ChEMBL document CHEMBL1201862, “PubChem BioAssay data set” (2004)
# Active and inactive are the calls of the source.
# Legend:
# INS1 = assay: INS-1E survival protection against cytokine death – cell-based, luminescence, retest, dose response (AID 449756); type: functional; conditions: Rattus norvegicus;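 note: cell death triggered by IL-1 beta plus TNF-alpha plus IFN-gamma mixture; protective hits raise ATP signal compared with cytokine alone wells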
# Protein Wnt-3a = Protein Wnt-3a (Mus musculus, UniProt P27467); assay: antagonism of Wnt3a pathway luciferase reporter – Wnt-LIGHT cells, luminescence, selectivity assay for Gli-SUFU antagonist project, dose response (AID 651570); type: functional; conditions: read-out: IC50_Mean;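 note: Wnt-LIGHT reporter cells stimulated with conditioned medium from Wnt3a-producing cells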
# [1] = rise of 2N DNA cells, HeLa – IC50, dose response (AID 1117349); type: functional, cell-based
# [2] = rise of 4N DNA cells, HeLa – IC50, dose response (AID 1117351); type: functional, cell-based
# Vero = assay: inhibition of WNV-induced cytopathic effect – cell-based, CPE readout (AID 1621); type: functional; conditions: Chlorocebus sabaeus
# [3] = molecular target: T1, Histone-lysine N-methyltransferase NSD2 (Homo sapiens, UniProt O96028); type: biochemical
# T1 sequence (O96028 whole entry): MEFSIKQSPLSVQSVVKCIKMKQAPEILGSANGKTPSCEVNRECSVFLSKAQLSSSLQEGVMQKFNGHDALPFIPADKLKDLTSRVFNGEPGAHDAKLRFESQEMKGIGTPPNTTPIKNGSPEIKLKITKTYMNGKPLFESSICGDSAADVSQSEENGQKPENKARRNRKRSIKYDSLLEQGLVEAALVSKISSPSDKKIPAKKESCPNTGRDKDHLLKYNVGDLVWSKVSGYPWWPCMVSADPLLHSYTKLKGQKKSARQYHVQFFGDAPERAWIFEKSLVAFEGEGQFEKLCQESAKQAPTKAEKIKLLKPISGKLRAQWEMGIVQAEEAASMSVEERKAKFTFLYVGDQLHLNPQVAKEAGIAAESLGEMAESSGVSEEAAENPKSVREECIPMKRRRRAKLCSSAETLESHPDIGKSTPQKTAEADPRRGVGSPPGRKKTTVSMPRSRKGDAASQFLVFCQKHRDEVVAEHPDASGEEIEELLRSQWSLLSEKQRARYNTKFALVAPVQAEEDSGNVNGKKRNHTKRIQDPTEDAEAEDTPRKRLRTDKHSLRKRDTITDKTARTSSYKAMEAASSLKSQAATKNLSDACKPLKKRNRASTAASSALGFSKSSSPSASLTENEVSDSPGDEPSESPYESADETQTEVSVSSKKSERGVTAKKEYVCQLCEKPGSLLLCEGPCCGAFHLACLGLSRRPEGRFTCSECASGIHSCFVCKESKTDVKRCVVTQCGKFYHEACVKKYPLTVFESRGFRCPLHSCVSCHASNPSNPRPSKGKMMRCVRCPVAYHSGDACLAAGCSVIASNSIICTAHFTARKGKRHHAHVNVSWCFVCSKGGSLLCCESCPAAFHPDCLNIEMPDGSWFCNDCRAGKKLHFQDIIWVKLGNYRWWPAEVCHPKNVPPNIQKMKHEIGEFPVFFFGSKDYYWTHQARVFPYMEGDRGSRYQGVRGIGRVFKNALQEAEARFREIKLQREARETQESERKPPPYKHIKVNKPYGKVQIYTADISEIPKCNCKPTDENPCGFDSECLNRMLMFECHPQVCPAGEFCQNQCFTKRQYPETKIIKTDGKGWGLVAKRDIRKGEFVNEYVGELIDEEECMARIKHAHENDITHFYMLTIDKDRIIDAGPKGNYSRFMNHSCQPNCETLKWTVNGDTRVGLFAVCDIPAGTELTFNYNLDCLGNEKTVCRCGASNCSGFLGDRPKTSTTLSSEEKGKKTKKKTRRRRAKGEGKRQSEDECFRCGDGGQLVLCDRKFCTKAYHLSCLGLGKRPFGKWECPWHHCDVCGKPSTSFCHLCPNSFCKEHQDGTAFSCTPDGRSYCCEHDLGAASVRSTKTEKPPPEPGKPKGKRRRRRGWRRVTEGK
# [4] = molecular target: Heat shock protein HSP 90-alpha (Homo sapiens, UniProt P07900); assay: Luminescence-based dose response biochemical high throughput screening assay for inhibitors of the Heat Shock Protein 90 (HSP90). [Related pubchem assays: 1831 (Summary AID.), 1846 (Confirmation screen.), 1789 (Primary screen.)]
# Cytochrome P450 3A4 = Cytochrome P450 3A4 (Homo sapiens, UniProt P08684);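 note: CYP3A4 tested as one member of a cytochrome P450 panel screen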
# Sequence of Cytochrome P450 3A4 (P08684 whole entry): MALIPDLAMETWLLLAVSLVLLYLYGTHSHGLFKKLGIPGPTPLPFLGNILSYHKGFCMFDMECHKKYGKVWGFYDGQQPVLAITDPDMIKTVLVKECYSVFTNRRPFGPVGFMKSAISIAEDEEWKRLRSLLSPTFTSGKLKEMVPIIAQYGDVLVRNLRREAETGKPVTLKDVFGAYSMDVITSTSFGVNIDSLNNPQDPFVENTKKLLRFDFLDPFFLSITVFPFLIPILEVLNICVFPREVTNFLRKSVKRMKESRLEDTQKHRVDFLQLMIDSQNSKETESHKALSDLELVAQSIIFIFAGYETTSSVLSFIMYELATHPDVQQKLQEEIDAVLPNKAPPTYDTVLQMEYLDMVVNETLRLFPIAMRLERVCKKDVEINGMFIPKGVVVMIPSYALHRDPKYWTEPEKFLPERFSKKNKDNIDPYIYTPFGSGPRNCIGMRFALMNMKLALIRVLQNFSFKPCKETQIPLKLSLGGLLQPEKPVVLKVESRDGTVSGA
# [5] = HepG2 hepatoma cell viability loss – plate reader, dry powder, cytotoxicity control, dose response (AID 651947); type: functional, cell-based
# [6] = viability loss in HEK293T cells – cell-based, CellTiter-Glo luminescence, dry powder, set 6, cytotoxicity control, dose response (AID 651949); type: functional; conditions: HEK293
# [7] = growth inhibition of yeast DHODH-expressing 3D7 parasites – SYBR Green, dry powder samples, dose response (AID 1159570); type: functional, cell-based;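 note: parasite growth measured after 72 hours of compound exposure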
# [8] = toxicity to human HepG2 hepatoma cells – cell-based, plate reader, dry powder samples, cytotoxicity control, dose response (AID 1159569); type: functional;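 note: inhibitor potency with signal falling toward the positive control level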
# [9] = P. falciparum Dd2 growth inhibitors, dose response, SYBR Green, cherry-picked samples (AID 1159567); type: functional, cell-based
# [10] = Dd2 malaria parasite growth inhibition potency – SYBR Green, dry powder samples, dose response (AID 1159566); type: functional, cell-based;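 note: potency for growth inhibition with lower SYBR green DNA signal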
# [11] = Plasmodium falciparum Dd2 Sybr green parasite growth Measured in Cell-Based and Microorganism Combination System Using Plate Reader - 2153-01_Inhibitor_Dose_DryPowder_Activity_Set3.; type: functional
# [12] = growth inhibition of PfATP4-mutant resistant parasites – NITD609-resistant line, SYBR Green, dry powder, dose response (AID 1159571); type: functional, cell-based;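 note: parasites synchronized at ring stage by sorbitol before testing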
# HT-1080 = assay: HT1080 cell viability loss – fluorescence readout (AID 620); type: functional, cell-based; conditions: Homo sapiens
# [13] = molecular target: 5-hydroxytryptamine receptor 1A (Homo sapiens, UniProt P08908); type: functional
# Sequence of 5-hydroxytryptamine receptor 1A (P08908 whole entry): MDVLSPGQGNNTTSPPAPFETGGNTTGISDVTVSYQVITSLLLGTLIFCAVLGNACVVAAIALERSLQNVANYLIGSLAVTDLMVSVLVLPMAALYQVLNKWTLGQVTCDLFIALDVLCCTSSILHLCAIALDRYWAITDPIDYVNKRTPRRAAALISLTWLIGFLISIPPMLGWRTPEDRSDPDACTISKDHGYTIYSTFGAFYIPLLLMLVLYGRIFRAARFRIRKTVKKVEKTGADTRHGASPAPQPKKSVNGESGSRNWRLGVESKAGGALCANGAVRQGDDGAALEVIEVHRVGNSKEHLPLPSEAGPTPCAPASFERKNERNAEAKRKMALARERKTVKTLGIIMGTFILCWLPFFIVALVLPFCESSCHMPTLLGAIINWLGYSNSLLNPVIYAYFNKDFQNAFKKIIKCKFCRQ
# [14] = molecular target: T2, DNA repair protein RAD52 homolog (Homo sapiens, UniProt P43351); type: functional, biochemical
# T2 sequence (P43351 whole entry): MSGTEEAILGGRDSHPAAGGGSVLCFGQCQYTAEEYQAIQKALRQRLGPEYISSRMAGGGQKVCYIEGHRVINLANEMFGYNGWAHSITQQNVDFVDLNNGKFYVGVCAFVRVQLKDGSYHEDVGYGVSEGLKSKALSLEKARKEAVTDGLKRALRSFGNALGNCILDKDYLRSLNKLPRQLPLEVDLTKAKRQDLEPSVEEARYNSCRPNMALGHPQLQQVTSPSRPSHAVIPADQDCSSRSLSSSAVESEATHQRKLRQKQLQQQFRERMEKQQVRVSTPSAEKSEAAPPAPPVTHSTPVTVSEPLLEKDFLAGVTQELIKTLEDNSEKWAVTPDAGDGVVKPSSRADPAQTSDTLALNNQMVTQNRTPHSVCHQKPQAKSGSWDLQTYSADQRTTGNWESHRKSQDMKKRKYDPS
# [15] = Luminescence Cell-Based Dose Response HTS to Identify Activators of Luciferase Translation or Activity in H4 […] Cells. [Related pubchem assays: 1829 (Project Summary), 1814 (Primary HTS)]; type: functional
# H4 = assay: Luminescence Cell-Based Dose Response HTS to Identify Activators of 5'UTR Stem-Loop Driven Prion Protein mRNA Translation in H4 Neuroglioblastoma Cells. [Related pubchem assays: 1829 (Project Summary), 1814 (Primary HTS)]; type: functional; conditions: Homo sapiens
# [16] = molecular target: Aryl hydrocarbon receptor (Homo sapiens, UniProt P35869); assay: Luminescence-based cell-based high throughput dose response assay for activators of the Aryl Hydrocarbon Receptor (AHR). [Related pubchem assays: 2796 (Primary screen (AHR activators in singlicate)), 2845 (Confirmation screen (AHR activators in triplicate)), 434939 (Counterscreen (PXR activators in triplicate)), 2804 (Summary (AHR activators))]; type: ADME
# Sequence of Aryl hydrocarbon receptor (P35869 whole entry): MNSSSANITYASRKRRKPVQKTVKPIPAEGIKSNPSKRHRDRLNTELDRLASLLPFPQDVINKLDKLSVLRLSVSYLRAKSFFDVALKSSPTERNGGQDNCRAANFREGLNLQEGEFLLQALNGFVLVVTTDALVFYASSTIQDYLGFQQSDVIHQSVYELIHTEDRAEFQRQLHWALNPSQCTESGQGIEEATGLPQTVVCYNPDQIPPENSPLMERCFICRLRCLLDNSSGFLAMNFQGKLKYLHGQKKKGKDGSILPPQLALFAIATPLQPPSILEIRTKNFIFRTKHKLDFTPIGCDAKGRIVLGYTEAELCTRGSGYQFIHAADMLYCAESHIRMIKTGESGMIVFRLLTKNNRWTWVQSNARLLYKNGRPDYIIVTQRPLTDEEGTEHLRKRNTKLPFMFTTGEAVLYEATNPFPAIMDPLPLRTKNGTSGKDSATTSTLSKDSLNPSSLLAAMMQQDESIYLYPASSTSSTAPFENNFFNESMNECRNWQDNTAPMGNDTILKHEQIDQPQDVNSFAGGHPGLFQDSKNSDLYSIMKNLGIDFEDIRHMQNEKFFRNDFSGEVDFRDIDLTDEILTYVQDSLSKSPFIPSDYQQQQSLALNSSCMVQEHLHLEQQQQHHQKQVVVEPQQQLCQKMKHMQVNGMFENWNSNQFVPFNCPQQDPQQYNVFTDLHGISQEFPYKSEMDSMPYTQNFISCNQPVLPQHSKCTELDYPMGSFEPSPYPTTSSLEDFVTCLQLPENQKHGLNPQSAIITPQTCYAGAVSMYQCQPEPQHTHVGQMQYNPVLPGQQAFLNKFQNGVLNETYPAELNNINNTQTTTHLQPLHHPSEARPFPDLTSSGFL
# [17] = Luminescence Cell-Based Dose Response HTS to Identify Inhibitors of 5'UTR Stem-Loop Driven Prion Protein mRNA Translation in H4 Neuroglioblastoma Cells. [Related pubchem assays: 1827 (Project Summary), 1813 (Primary HTS)]; type: functional
# [18] = A549 cell cytotoxicity, dose response, cytotoxicity control, plate reader, cherry-pick, antagonist series (AID 743412); type: functional, cell-based
# [19] = toxicity toward HepG2 liver cells – cell-based, plate reader, cherry-pick, antagonist series, cytotoxicity control, dose response (AID 743416); type: functional
# [20] = blockers of bursicon-stimulated LGR2 cAMP reporter – cell-based, HEK293, CRE-luciferase reporter, cherry pick, set 2, dose response (AID 743343); type: functional;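 note: transfected cells were stimulated with diluted bursicon conditioned medium after compound addition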
# [21] = blockade of melanocortin 4 receptor signaling – cell-based, plate reader, cherry pick, counter-screen for LGR2 antagonist project, dose response (AID 743444); type: functional;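 note: transfected HEK 293 cells stimulated with alpha-MSH peptide; potency of inhibitors of the alpha-MSH evoked signal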
# [22] = molecular target: T3, Oxysterols receptor LXR-beta (Homo sapiens, UniProt P55055); type: functional, cell-based;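 note: Cell-based luminescence dose-response assay of agonist activity at LXR, run as a confirmatory counterscreen to a daf-12 agonist screen; HEK293 cells with Gal4-LXR fusion and GAL4-driven luciferase reporter; agonist potency from rising luciferase signal of a Gal4-LXR reporter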
# T3 sequence (P55055 whole entry): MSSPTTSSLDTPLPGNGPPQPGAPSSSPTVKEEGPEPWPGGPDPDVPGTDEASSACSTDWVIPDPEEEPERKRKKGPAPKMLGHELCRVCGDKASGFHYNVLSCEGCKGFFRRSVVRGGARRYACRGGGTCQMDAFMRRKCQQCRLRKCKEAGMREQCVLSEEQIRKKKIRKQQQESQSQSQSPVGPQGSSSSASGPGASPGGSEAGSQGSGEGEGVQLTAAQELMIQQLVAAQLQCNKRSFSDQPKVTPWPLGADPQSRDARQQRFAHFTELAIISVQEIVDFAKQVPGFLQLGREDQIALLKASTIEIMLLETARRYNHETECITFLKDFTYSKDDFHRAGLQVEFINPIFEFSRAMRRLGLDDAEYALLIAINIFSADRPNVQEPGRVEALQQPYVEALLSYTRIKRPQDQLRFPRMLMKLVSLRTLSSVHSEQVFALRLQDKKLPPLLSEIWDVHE
# [23] = LMP1-induced NF-kB luciferase signal inhibition – cell-based, EBV LMP1, dry powder, set 2, dose response (AID 624361); type: functional
# [24] = molecular target: NAD-dependent protein deacylase sirtuin-5, mitochondrial (Homo sapiens, UniProt Q9NXA8); assay: blockers of sirtuin-5 peptide desuccinylation – biochemical, fluorescence imaging, cherry-pick, set 6, dose response (AID 720597)
# Sequence of NAD-dependent protein deacylase sirtuin-5, mitochondrial (Q9NXA8 whole entry): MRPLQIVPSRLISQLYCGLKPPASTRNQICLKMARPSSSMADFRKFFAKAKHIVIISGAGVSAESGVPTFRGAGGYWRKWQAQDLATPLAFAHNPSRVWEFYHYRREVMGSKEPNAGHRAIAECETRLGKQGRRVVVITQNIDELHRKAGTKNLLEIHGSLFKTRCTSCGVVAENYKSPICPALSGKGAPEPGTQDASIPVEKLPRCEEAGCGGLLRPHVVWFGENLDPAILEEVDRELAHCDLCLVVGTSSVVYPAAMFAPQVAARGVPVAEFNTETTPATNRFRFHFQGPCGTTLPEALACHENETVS
# Genome polyprotein = Genome polyprotein (Hepatitis C virus, UniProt Q2Q167); assay: disruption of hepatitis C core self-association – biochemical, TR-FRET, dose response (AID 2159); parameters: species or system Hepacivirus hominis;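 note: blocks dimerization of HCV core protein measured by TR-FRET between tagged core106 pairs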
# Sequence of Genome polyprotein (Q2Q167 whole entry): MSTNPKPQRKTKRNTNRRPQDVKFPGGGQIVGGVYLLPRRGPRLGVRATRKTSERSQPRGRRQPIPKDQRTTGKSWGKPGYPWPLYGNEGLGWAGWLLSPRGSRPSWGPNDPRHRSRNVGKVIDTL
# [25] = molecular target: Solute carrier family 12 member 2/member 5 (Homo sapiens, UniProt P55011+Q9H2X9); assay: KCC2 and NKCC1 inhibition by rubidium flux, cell-based, NKCC1 counter-screen (AID 1734); type: functional, HEK293
# [26] = molecular target: Protein-tyrosine kinase 2-beta (Homo sapiens, UniProt Q14289);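 note: potency of inhibitors of PYK2 kinase phosphorylation of poly-GT substrate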
# Sequence of Protein-tyrosine kinase 2-beta (Q14289 whole entry): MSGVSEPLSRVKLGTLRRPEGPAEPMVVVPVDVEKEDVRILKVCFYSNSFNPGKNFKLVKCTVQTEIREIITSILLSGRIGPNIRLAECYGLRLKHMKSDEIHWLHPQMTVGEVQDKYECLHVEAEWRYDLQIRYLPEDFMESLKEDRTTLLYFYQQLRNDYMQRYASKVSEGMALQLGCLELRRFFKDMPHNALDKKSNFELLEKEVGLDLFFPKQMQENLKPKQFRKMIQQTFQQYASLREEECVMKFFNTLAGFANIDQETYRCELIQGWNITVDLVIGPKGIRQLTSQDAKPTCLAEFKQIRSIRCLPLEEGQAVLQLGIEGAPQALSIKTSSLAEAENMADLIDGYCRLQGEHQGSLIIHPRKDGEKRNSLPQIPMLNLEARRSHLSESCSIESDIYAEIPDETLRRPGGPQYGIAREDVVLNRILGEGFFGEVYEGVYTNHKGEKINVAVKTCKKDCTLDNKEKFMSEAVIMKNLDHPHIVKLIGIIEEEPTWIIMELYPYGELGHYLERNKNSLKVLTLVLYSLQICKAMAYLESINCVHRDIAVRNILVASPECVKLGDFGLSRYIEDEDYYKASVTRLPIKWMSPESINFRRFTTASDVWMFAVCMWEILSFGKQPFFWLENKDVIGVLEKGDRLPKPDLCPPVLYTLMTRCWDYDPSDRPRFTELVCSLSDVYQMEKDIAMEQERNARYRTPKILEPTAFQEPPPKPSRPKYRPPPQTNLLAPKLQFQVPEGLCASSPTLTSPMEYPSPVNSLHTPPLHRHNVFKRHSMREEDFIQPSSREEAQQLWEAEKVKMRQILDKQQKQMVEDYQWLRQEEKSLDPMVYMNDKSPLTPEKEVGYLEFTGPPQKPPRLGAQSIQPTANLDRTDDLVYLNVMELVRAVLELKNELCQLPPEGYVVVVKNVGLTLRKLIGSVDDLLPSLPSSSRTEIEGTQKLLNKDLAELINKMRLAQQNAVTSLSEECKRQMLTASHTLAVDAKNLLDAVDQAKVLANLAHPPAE
# Kallikrein-7 = Kallikrein-7 (Homo sapiens, UniProt P49862); assay: Fluorescence Intensity-based biochemical primary high throughput dose response assay to identify activators of kallikrein-7 (K7) zymogen.
# Sequence of Kallikrein-7 (P49862 whole entry, the tested form may be a part): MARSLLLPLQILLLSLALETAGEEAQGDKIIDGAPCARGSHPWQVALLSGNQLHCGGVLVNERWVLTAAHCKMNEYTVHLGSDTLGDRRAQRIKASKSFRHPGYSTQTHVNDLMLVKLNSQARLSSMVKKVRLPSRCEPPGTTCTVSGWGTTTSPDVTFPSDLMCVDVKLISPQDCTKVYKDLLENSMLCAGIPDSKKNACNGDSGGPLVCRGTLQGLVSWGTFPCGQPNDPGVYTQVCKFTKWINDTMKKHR
# [27] = molecular target: E3 ubiquitin-protein ligase UHRF1 (Homo sapiens, UniProt Q96T88); assay: Counterscreen for inhibitors of 5-meCpG-binding domain protein 2 (MBD2): TRFRET-based biochemical high throughput dose response assay to identify inhibitors of binding of ubiquitin-like with PHD and ring finger domains 1 (UHRF1) to methylated oligonucleotide.
# Sequence of E3 ubiquitin-protein ligase UHRF1 (Q96T88 whole entry, the tested form may be a part): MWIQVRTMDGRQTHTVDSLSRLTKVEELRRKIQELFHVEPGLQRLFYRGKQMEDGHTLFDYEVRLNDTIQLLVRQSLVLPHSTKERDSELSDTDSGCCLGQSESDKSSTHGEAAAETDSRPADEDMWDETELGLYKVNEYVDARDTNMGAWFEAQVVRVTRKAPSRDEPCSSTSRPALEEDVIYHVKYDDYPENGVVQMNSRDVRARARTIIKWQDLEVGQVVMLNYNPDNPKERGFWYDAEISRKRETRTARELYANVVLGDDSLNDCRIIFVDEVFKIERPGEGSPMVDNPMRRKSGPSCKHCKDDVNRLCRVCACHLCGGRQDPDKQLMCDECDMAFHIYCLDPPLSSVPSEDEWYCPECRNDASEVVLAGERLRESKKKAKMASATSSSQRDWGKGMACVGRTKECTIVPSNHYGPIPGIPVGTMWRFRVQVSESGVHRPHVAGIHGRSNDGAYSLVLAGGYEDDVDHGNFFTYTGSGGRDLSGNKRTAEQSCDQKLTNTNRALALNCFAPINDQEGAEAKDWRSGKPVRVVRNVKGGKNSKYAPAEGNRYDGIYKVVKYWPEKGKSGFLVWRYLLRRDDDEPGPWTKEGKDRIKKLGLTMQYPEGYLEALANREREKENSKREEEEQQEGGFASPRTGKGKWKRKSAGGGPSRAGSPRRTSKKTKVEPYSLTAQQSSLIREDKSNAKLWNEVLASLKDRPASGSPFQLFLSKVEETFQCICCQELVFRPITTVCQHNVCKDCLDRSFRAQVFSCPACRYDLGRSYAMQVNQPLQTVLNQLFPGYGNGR
# [28] = molecular target: Peroxisome proliferator-activated receptor gamma/Nuclear receptor corepressor 2 (Homo sapiens, UniProt P37231+Q9Y618); assay: Counterscreen for NR2E3 inverse agonists: TR-FRET-based biochemical high throughput dose response assay to identify inverse agonists of the interaction between peroxisome proliferator-activated receptor gamma (PPARg) and nuclear receptor co-repressor 2 (NCOR2).; type: functional
# [29] = molecular target: Photoreceptor-specific nuclear receptor (Homo sapiens, UniProt Q9Y5X4); assay: ligands suppressing NR2E3 nuclear receptor activity – biochemical, TR-FRET, dose response (AID 463256); type: functional
# Sequence of Photoreceptor-specific nuclear receptor (Q9Y5X4 whole entry): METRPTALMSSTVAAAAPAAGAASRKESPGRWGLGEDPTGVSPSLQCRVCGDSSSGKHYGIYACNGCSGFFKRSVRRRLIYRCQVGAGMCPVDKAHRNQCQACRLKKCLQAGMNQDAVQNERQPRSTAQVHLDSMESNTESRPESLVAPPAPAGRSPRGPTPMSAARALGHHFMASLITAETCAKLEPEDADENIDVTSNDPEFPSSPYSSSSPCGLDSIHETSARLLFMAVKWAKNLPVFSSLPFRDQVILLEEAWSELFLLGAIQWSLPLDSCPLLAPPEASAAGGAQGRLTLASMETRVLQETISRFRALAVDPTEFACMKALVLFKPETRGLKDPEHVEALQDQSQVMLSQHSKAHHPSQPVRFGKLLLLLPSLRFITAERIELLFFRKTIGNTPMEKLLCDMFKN
compound,measurement,setting,value
CCCCCCC[N+](CC)(CC)CCCCc1ccc(Cl)cc1,AC50,INS1,4.29 µM (active)
same,IC50,Protein Wnt-3a,2.74 µM (active)
same,IC50,[1],> 10 µM (inactive)
same,IC50,[2],> 10 µM (inactive)
COc1ccc(-c2csc(N(CCCN(C)C)C(=O)c3ccccc3Cl)n2)cc1,IC50,Vero,25 µM (active)
same,AC50,[3],> 20 µM (inactive)
CCOC(=O)C1CCCN(C(=O)c2sc3nc(-c4ccc(OC)cc4)cn3c2C)C1 (stereo not drawn),IC50,[4],5.85 µM (active)
same,AC50,Cytochrome P450 3A4,14.1 µM (inconclusive)
[O-][S+](Cc1cn(Cc2ccc(F)cc2)nn1)c1nnc(-c2ccc(Cl)cc2)o1 (stereo not drawn),AC50,[5],15.1 µM (active)
same,AC50,[6],17.2 µM (active)
CC(C)NC(=O)N1[C@H](C#N)[C@H](c2ccc(C#CC3CCCC3)cc2)[C@@H]1CO,AC50,[7],3.52 µM (active)
same,AC50,[8],36.7 µM (active)
same,AC50,[9],0.803 µM (active)
same,AC50,[10],0.684 µM (active)
same,AC50,[11],0.845 µM (active)
same,AC50,[12],0.887 µM (active)
COc1ccc2[nH]c(-c3ccc(N)cc3)nc2c1,EC50,HT-1080,> 50 µM (not active)
Cc1[nH]c2ccccc2c1C1=CCNCC1,EC50,[13],> 50 µM (not active)
same,AC50,[14],4.56 µM (active)
Cc1ccc(/C=N/n2cc(-c3ccccc3)nc2S)s1,EC50,[15],10.4 µM (active)
same,EC50,H4,20 µM (active)
same,EC50,[16],1.44 µM (active)
Cc1ccc2[nH]c(CSc3nc(C)ccc3C#N)nc2c1,EC50,[17],> 120 µM (not active)
same,AC50,[18],> 52 µM (inactive)
same,AC50,[19],> 52 µM (inactive)
same,AC50,[20],30.8 µM (active)
same,AC50,[21],33.5 µM (active)
same,EC50,[22],> 67.5 µM (inactive)
same,EC50,cells,> 67.5 µM (inactive)
Cc1noc(C)c1S(=O)(=O)Nc1ccc2c(c1)C(=O)N([C@@H](C)CO)C[C@@H](C)[C@@H](CN(C)Cc1ccc(C(F)(F)F)cc1)OCCCC[C@@H](C)O2,AbsAC35,[23],38.34 µM
same,AC50,[24],> 15 µM (inactive)
COc1ccc(C(=O)NC(=S)Nc2ccc3[nH]c(=O)[nH]c3c2)c(OC)c1,IC50,Genome polyprotein,> 49.8 µM (not active)
O=C(CCS(=O)(=O)Cc1ccccc1)Nc1nc2c(s1)CCCC2,IC50,[25],13.4 µM (active)
NC(=O)c1sc2nc3c(c(-c4ccco4)c2c1N)CCC3,IC50,[26],10.2 µM (not active)
Cc1ccc2nc(NCC(=O)O)nc(-c3ccccc3)c2c1,EC50,Kallikrein-7,14.5 µM (inactive)
CC(=O)Nc1sc2c(c1-c1nc3ccccc3s1)CCN(C(C)C)CC2,IC50,[27],16.9 µM (inactive)
COc1ccc(C(=O)NCc2ccc(-c3nc4ccccc4s3)cc2)cc1OC,IC50,[28],6.27 µM (active)
same,IC50,[29],5.83 µM (active)
